Results from patent US20260356840A1, “[1,2,4]TRIAZOLO[1,5-A]PYRIMIDINONE WRN INHIBITORS” (Nimbus Wadjet, Inc., priority 2023, published 2026).
pIC50: −log10 of the molar value.

The molecules below were run against T1, human Werner helicase (Uniprot Q14191, amino acids 517-1235 with L1074F point mutation), WRN-BV08 (Homo sapiens, UniProt Q14191, L1074F) (assay: WRN (BV08) ADP-Glo Assay).
T1 construct: Uniprot Q14191, amino acids 517-1235 with L1074F point mutation; TEV cleavable 8xHis tag (C, cleaved yes); made in house; host or cells: Sf9 insect cells (baculovirus, pFastBac)
T1 sequence (Q14191 517-1235 L1074F): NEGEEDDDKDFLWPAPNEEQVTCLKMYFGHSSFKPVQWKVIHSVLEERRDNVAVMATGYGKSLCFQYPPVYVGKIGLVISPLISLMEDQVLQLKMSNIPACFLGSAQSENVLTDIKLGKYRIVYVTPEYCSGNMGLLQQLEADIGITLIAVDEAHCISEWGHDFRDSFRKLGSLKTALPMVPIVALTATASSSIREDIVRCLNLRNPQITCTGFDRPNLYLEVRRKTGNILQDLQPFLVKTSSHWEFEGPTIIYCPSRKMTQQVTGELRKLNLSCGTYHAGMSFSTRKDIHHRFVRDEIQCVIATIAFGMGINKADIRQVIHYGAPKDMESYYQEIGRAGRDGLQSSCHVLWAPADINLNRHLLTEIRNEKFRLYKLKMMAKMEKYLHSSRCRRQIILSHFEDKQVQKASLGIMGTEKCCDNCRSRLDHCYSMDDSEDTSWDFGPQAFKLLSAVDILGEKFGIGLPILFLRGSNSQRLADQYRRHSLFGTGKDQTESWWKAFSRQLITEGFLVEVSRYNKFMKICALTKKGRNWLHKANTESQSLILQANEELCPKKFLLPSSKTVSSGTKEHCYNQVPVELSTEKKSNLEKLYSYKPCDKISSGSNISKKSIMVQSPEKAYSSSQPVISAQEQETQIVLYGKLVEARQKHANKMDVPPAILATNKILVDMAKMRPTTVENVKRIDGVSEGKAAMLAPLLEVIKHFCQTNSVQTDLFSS
Format: biochemical
For `COc1cc(-c2nc3n(CC(=O)Nc4ccc(C(F)(F)F)cc4Cl)cc(C4CCN(C(=O)c5ncnc(C)c5O)CC4)c(=O)n3n2)ccn1` [Compound I-81, N-[2-chloro-4-(trifluoromethyl)phenyl]-2-{6-[1-(5-hydroxy-6-methylpyrimidine-4-carbonyl)piperidin-4-yl]-2-(2-methoxypyridin-4-yl)-7-oxo-4H,7H-[1,2,4]triazolo[1,5-a]pyrimidin-4-yl}acetamide], the pIC50 was 6.30 to 7.00. Work on `CCc1c(N2CCN(C(=O)c3cnn(C)c3)CC2)c(=O)n2nc(-c3cc(OC)ncn3)nc2n1CC(=O)Nc1ccc(C(F)(F)F)cc1Cl` [Compound I-71, N-[2-chloro-4-(trifluoromethyl)phenyl]-2-[5-ethyl-2-(6-methoxypyrimidin-4-yl)-6-[4-(1-methyl-1H-pyrazole-4-carbonyl)piperazin-1-yl]-7-oxo-4H,7H-[1,2,4]triazolo[1,5-a]pyrimidin-4-yl]acetamide] yielded a pIC50 of 7.30 to 8.30. In the case of `CCc1c(N2CCN(C(=O)c3cnc(C)cc3O)CC2)c(=O)n2nc(C3=CCOCC3)nc2n1CC(=O)Nc1ccc(C(F)(F)F)cc1Cl` [Compound I-2, N-[2-chloro-4-(trifluoromethyl)phenyl]-2-[2-(3,6-dihydro-2H-pyran-4-yl)-5-ethyl-6-[4-(4-hydroxy-6-methylpyridine-3-carbonyl)piperazin-1-yl]-7-oxo-4H,7H-[1,2,4]triazolo[1,5-a]pyrimidin-4-yl]acetamide], the pIC50 was 7.30 to 8.30. `CCc1c(N2CCN(C(=O)c3cnn(C)c3)CC2)c(=O)n2nc(-c3cc(OC)ncc3F)nc2n1CC(=O)Nc1ccc(C(F)(F)F)cc1Cl` [Compound I-72, N-[2-chloro-4-(trifluoromethyl)phenyl]-2-[5-ethyl-2-(5-fluoro-2-methoxypyridin-4-yl)-6-[4-(1-methyl-1H-pyrazole-4-carbonyl)piperazin-1-yl]-7-oxo-4H,7H-[1,2,4]triazolo[1,5-a]pyrimidin-4-yl]acetamide] gave a pIC50 of 7.30 to 8.30. For `CCc1c(N2CCN(C(=O)c3c(C)cnc(C)c3O)CC2)c(=O)n2nc(C3=CCOCC3)nc2n1CC(=O)Nc1ccc(C(F)(F)F)cc1Cl` [Compound I-13, N-[2-chloro-4-(trifluoromethyl)phenyl]-2-[2-(3,6-dihydro-2H-pyran-4-yl)-5-ethyl-6-[4-(3-hydroxy-2,5-dimethylpyridine-4-carbonyl)piperazin-1-yl]-7-oxo-4H,7H-[1,2,4]triazolo[1,5-a]pyrimidin-4-yl]acetamide], the pIC50 was 7.30 to 8.30. In the case of `CCc1c(N2CCN(C(=O)c3cnc(C)o3)CC2)c(=O)n2nc(-c3ccnc(OC)c3)nc2n1CC(=O)Nc1ccc(C(F)(F)F)cc1Cl` [Compound I-67, N-[2-chloro-4-(trifluoromethyl)phenyl]-2-[5-ethyl-2-(2-methoxypyridin-4-yl)-6-[4-(2-methyl-1,3-oxazole-5-carbonyl)piperazin-1-yl]-7-oxo-4H,7H-[1,2,4]triazolo[1,5-a]pyrimidin-4-yl]acetamide], the pIC50 was 7.30 to 8.30. For `CCc1c(N2CCN(C(=O)c3sc(C(F)(F)F)cc3O)CC2)c(=O)n2nc(C3=CCOCC3)nc2n1CC(=O)Nc1ccc(C(F)(F)F)cc1Cl` [Compound I-7, N-[2-chloro-4-(trifluoromethyl)phenyl]-2-[2-(3,6-dihydro-2H-pyran-4-yl)-5-ethyl-6-{4-[3-hydroxy-5-(trifluoromethyl)thiophene-2-carbonyl]piperazin-1-yl}-7-oxo-4H,7H-[1,2,4]triazolo[1,5-a]pyrimidin-4-yl]acetamide], the pIC50 was 7.30 to 8.30. With `CCc1c(N2CCN(C(=O)[C@H]3C[C@@H](O)C3)CC2)c(=O)n2nc(C3=CCOCC3)nc2n1CC(=O)Nc1ccc(C(F)(F)F)cc1Cl` [Compound I-39, N-[2-chloro-4-(trifluoromethyl)phenyl]-2-[2-(3,6-dihydro-2H-pyran-4-yl)-5-ethyl-7-oxo-6-{4-[(1s,3s)-3-hydroxycyclobutanecarbonyl]piperazin-1-yl}-4H,7H-[1,2,4]triazolo[1,5-a]pyrimidin-4-yl]acetamide] the pIC50 was 7.30 to 8.30. In the case of `CCc1c(N2CCN(C(=O)c3nn(C)cc3O)CC2)c(=O)n2nc(C3CC3)nc2n1CC(=O)Nc1ccc(C(F)(F)F)cc1Cl` [Compound I-36, N-[2-chloro-4-(trifluoromethyl)phenyl]-2-{2-cyclopropyl-5-ethyl-6-[4-(4-hydroxy-1-methyl-1H-pyrazole-3-carbonyl)piperazin-1-yl]-7-oxo-4H,7H-[1,2,4]triazolo[1,5-a]pyrimidin-4-yl}acetamide], the pIC50 was 6.30 to 7.00. Work on `CCc1c(N2CCN(C(=O)c3c(O)cncc3F)CC2)c(=O)n2nc(C3=CCOCC3)nc2n1CC(=O)Nc1ccc(C(F)(F)F)cc1Cl` [Compound I-9, N-[2-chloro-4-(trifluoromethyl)phenyl]-2-[2-(3,6-dihydro-2H-pyran-4-yl)-5-ethyl-6-[4-(3-fluoro-5-hydroxypyridine-4-carbonyl)piperazin-1-yl]-7-oxo-4H,7H-[1,2,4]triazolo[1,5-a]pyrimidin-4-yl]acetamide] yielded a pIC50 of 7.30 to 8.30. `CCc1c(N2CCN(C(=O)c3c(O)cccc3OC)CC2)c(=O)n2nc(C3=CCOCC3)nc2n1CC(=O)Nc1ccc(C(F)(F)F)cc1Cl` [Compound I-4, N-[2-chloro-4-(trifluoromethyl)phenyl]-2-[2-(3,6-dihydro-2H-pyran-4-yl)-5-ethyl-6-[4-(2-hydroxy-6-methoxybenzoyl)piperazin-1-yl]-7-oxo-4H,7H-[1,2,4]triazolo[1,5-a]pyrimidin-4-yl]acetamide] was tested, and the pIC50 was 7.30 to 8.30. `CCc1c(N2CCN(C(=O)c3cccc(C)c3O)CC2)c(=O)n2nc(C3=CCOCC3)nc2n1CC(=O)Nc1ccc(C(F)(F)F)cc1Cl` [Compound I-3, N-[2-chloro-4-(trifluoromethyl)phenyl]-2-[2-(3,6-dihydro-2H-pyran-4-yl)-5-ethyl-6-[4-(2-hydroxy-3-methylbenzoyl)piperazin-1-yl]-7-oxo-4H,7H-[1,2,4]triazolo[1,5-a]pyrimidin-4-yl]acetamide] showed a pIC50 of 7.30 to 8.30. `CCc1c(N2CCN(C(=O)c3cnnn3C)CC2)c(=O)n2nc(-c3ccnc(OC)c3)nc2n1CC(=O)Nc1ccc(C(F)(F)F)cc1Cl` [Compound I-63, N-[2-chloro-4-(trifluoromethyl)phenyl]-2-[5-ethyl-2-(2-methoxypyridin-4-yl)-6-[4-(1-methyl-1H-1,2,3-triazole-5-carbonyl)piperazin-1-yl]-7-oxo-4H,7H-[1,2,4]triazolo[1,5-a]pyrimidin-4-yl]acetamide] showed a pIC50 of 7.30 to 8.30. `CCc1c(N2CCN(C(=O)c3ncnc(C)c3O)CC2)c(=O)n2nc(-c3ccn(C4CC4)n3)nc2n1CC(=O)Nc1ccc(C(F)(F)F)cc1Cl` [Compound I-33, N-[2-chloro-4-(trifluoromethyl)phenyl]-2-[2-(1-cyclopropyl-1H-pyrazol-3-yl)-5-ethyl-6-[4-(5-hydroxy-6-methylpyrimidine-4-carbonyl)piperazin-1-yl]-7-oxo-4H,7H-[1,2,4]triazolo[1,5-a]pyrimidin-4-yl]acetamide] was tested, and the pIC50 was 7.30 to 8.30. For `CCc1c(N2CCN(C(=O)c3sccc3O)CC2)c(=O)n2nc(C3=CCOCC3)nc2n1CC(=O)Nc1ccc(C(F)(F)F)cc1Cl` [Compound I-6, N-[2-chloro-4-(trifluoromethyl)phenyl]-2-[2-(3,6-dihydro-2H-pyran-4-yl)-5-ethyl-6-[4-(3-hydroxythiophene-2-carbonyl)piperazin-1-yl]-7-oxo-4H,7H-[1,2,4]triazolo[1,5-a]pyrimidin-4-yl]acetamide], the pIC50 was 7.30 to 8.30. `CCc1c(N2CCN(C(=O)c3nocc3O)CC2)c(=O)n2nc(C3=CCOCC3)nc2n1CC(=O)Nc1ccc(C(F)(F)F)cc1Cl` [Compound I-29, N-[2-chloro-4-(trifluoromethyl)phenyl]-2-[2-(3,6-dihydro-2H-pyran-4-yl)-5-ethyl-6-[4-(4-hydroxy-1,2-oxazole-3-carbonyl)piperazin-1-yl]-7-oxo-4H,7H-[1,2,4]triazolo[1,5-a]pyrimidin-4-yl]acetamide] showed a pIC50 greater than 8.30.
